Experimental data published in patent publication US20240300934A1, “COMPOUNDS FOR MODULATING MYCOBACTERIUM TUBERCULOSIS RESPONSE” (priority 2021, published 2024).

Tests used:
[1] = Mouse plasma stability; type: in vitro ADME; details: after 5 h incubation
Procedure: Assays examining mouse and human liver microsomal stability, kinetic aqueous solubility, mouse and human plasma protein binding and stability, and human cytochrome P450 inhibition characteristics of the compounds were run by BioDuro, Incorporated, using standard protocols as previously described (Wang et al, 2020). hERG inhibition assays were also performed by BioDuro, Incorporated.

[2] = molecular target: human CYP 450 2C9 (Homo sapiens, UniProt P11712); experiment: Human cytochrome P450 inhibition, 2C9; type: in vitro ADME; details: 10 μM
[3] = Human liver microsomal stability; type: in vitro ADME
[4] = system: rv2390c′::GFP reporter Mtb strain; type: cell-based, Mycobacterium tuberculosis

Chain of human CYP 450 2C9 (P11712 whole entry): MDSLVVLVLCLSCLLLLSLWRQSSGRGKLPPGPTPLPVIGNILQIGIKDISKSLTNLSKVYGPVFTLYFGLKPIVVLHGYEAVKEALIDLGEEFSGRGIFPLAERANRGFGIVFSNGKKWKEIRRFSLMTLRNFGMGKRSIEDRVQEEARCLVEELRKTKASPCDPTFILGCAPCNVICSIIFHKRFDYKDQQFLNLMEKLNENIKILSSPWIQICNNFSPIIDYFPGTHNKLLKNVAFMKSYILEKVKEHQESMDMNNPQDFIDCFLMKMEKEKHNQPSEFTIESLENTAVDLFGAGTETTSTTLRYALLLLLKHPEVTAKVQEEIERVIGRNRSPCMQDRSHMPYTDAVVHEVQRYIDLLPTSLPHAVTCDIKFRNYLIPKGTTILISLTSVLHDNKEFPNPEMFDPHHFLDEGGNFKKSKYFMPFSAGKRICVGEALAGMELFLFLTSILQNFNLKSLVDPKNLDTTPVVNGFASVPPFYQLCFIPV

CCSc1ncc(CN2CCN(c3nc4ccccc4o3)CC2)cn1 [Compound C6, 2-(4-((2-(ethylthio)pyrimidin-5-yl)methyl)piperazin-1-yl)benzo[d]oxazole]
stability in mouse plasma, % remaining [1]: > 99.9%
% inhibition of CYP 2C9 [2]: 25.7%
t1/2 in human liver microsomes [3]: 37.6 min
rv2390c′::GFP reporter signal upon Mtb exposure to high [Cl−] (in words) ([4]; 10 μM, 250 mM NaCl): increased rv2390c′::GFP reporter signal
rv2390c′::GFP Cl− response phenotype ([4]; compared to C6): Y
rv2390c′::GFP response phenotype ([4]; screen hits, high chloride (250 mM NaCl, pH 6.4)): Increases induction in high
